Laboratory results taken from patent US20100285959A1, “HERBICIDAL MIXTURES” (priority 2006, published 2010).

What was measured:
[1] = test system: common lambsquarters (CHEAL); assay: Test 22 growth chamber, postemergence; type: in vivo, Chenopodium album; settings: 25 DAA
Protocol: (§1) A test was conducted to evaluate the effects on winter barley (HORVW, Hordeum vulgare L.), winter wheat (TRZAW, Triticum aestivum L.), and several weed species of mixtures of Compound 2 with the commercial herbicides (2,4-dichlorophenoxy)acetic acid (2,4-D) and (4-chloro-2-methylphenoxy)acetic acid (MCPA), auxin mimics. […] Plants were treated postemergence at the 2-4 leaf growth stage, except KCHSC, SASKR and STEME which were in the 4-8 leaf growth stage. Each treatment was replicated one time. […] Plants were watered as needed. […] Results are from single replicates.

[2] = test system: common lambsquarters (CHEAL); assay: Test 23 growth chamber, postemergence; type: in vivo, Chenopodium album; settings: 21 DAA
Protocol: as §1, with “stage,” for “stage, except KCHSC, SASKR”, “each” for “STEME which were in the 4-8 leaf growth stage. Each”, “three times.” for “one time.”, “means of the three” for “from single”

winter barley (HORVW) = assay: Test 19 growth chamber, postemergence; type: in vivo, Hordeum vulgare
Protocol: A test was conducted to evaluate the effects on winter barley (HORVW, Hordeum vulgare L.) and winter wheat (TRZAW, Triticum aestivum L.) of mixtures of Compound 2 with the commercial herbicide (2,4-dichlorophenoxy)acetic acid (2,4-D), an auxin mimic. […] Plants were treated postemergence at the 3-leaf growth stage, and each treatment was replicated four times. […] Plants were watered as needed. […] Results are the means of the four replicates.

velvetleaf (ABUTH) = assay: Test 2 field trial, preemergence; type: in vivo, Abutilon theophrasti; set-up: scale not given here
Description: (§2) Corn seeds (hybrid ‘Pioneer 31G96’) were planted in mid spring season, 3.8 cm deep in a clay loam soil having 2% organic matter and a pH of 6.6. Plots were 6.1 m long by 3.0 m wide with rows spaced 76 cm apart. Seeds were spaced 15 cm apart within the rows. The field was managed using conventional tillage practices. […] A few of the weed species could not be evaluated at every timing. […] Results are the means of the three replicates.

common ragweed (AMBEL) = assay: Test 2 field trial, preemergence; type: in vivo, Ambrosia artemisiifolia; set-up: scale not given here
Description: as §2

red deadnettle (LAMPU) = assay: Test 3 field trial, emerged weeds before corn planting; type: in vivo, Lamium purpureum; settings: Cpd 2 100, glyphosate 1540, paraquat 1150 g a.i./ha, alone or combined
Description: Corn seeds (hybrid ‘Pioneer 33J56’) were planted in early spring season, 3.8 cm deep in a silt loam soil having 2.4% organic matter and a pH of 6. Plots were 6.1 m long by 2.7 m wide with rows spaced 91.4 cm apart. The field was managed using no-till practices. […] Compound 2 and paraquat treatments, alone and in combination, also included a surfactant. Glyphosate, alone and with Compound 2, included ammonium sulfate in the treatment mixture. […] The effects on the weeds in the treated plots and untreated control plots were recorded 30, 42, 46 and 68 days after application. Most of the weed species could not be evaluated at every timing. Corn response was not evaluated because the growth was highly variable depending on the efficacy of the weed control treatments. […] Results are the means of the three replicates.

common chickweed (STEME) = assay: Test 9 field trial, emerged weeds before corn planting; type: in vivo, Stellaria media; settings: g a.i./ha: Cpd 2 100, Glyphosate 1540, Paraquat 1150
Protocol: (§3) Corn seeds (hybrid ‘Pioneer 34M91 RR’) were planted in mid spring season, about 3.8 cm deep in a silty clay loam soil having a pH of 6.7. Plots were 9.1 m long by 3.0 m. The field was managed using no-till practices. […] Compound 2 and paraquat treatments, alone and in combination, also included a surfactant. Glyphosate, alone and with Compound 2, included ammonium sulfate in the treatment mixture. […] The effects on the weeds in the treated plots and untreated control plots were recorded 7, 14, 23, 30 and 57 days after application. Most of the weed species could not be evaluated at every timing. Corn response was only evaluated 57 days after application. […] Results are the means of the three replicates.

[3] = test system: henbit deadnettle (LAMAM); assay: as above; type: in vivo, Lamium amplexicaule; settings: g a.i./ha: Cpd 2 100, Glyphosate 1540, Paraquat 1150
Protocol: as §3

wild radish (RAPRA) = assay: Test 7 field trial, preemergence; type: in vivo, Raphanus raphanistrum
Protocol: Plots were 7.6 m long by 3.0 m wide with rows spaced 76 cm apart. Seeds were spaced 15 cm apart within the rows. The field was managed using conventional tillage practices. […] Wild radish was evaluated 14 and 28 days after application. […] Results are the means of the three replicates.

[4] = 2,4-D or MCPA alone 250 g a.i./ha
[5] = 18 DAA, g a.i./ha: Cpd 2 25, Atrazine 250
[6] = 18 DAA, g a.i./ha: Cpd 2 50, Atrazine 500
[7] = 18 DAA, g a.i./ha: Cpd 2 75, Atrazine 750
[8] = 18 DAA, g a.i./ha: Cpd 2 100, Atrazine 1000
[9] = 18 DAA, g a.i./ha: Cpd 2 150, Atrazine 1500
[10] = 28 DAA, g a.i./ha: Cpd 2 25, Atrazine 250
[11] = 28 DAA, g a.i./ha: Cpd 2 50, Atrazine 500
[12] = 28 DAA, g a.i./ha: Cpd 2 75, Atrazine 750
[13] = 28 DAA, g a.i./ha: Cpd 2 100, Atrazine 1000
[14] = 28 DAA, g a.i./ha: Cpd 2 150, Atrazine 1500
[15] = 55 DAA, g a.i./ha: Cpd 2 25, Atrazine 250
[16] = 55 DAA, g a.i./ha: Cpd 2 50, Atrazine 500
[17] = 55 DAA, g a.i./ha: Cpd 2 75, Atrazine 750
[18] = 55 DAA, g a.i./ha: Cpd 2 100, Atrazine 1000
[19] = 55 DAA, g a.i./ha: Cpd 2 150, Atrazine 1500

## O=C(O)COc1ccc(Cl)cc1Cl [2,4-D, (2,4-dichlorophenoxy)acetic acid]
[1]; [4]
  Postemergence CHEAL Obs: 60
[2]; [4]
  Postemergence CHEAL Obs: 58
Winter barley (HORVW); Postemergence, 17 DAA, g a.i./ha: Cpd 2 16, 2,4-D 250
  HORVW Obs: 15
Winter barley (HORVW); Postemergence, 17 DAA, g a.i./ha: Cpd 2 16, 2,4-D 500
  HORVW Obs: 5
Winter barley (HORVW); Postemergence, 17 DAA, g a.i./ha: Cpd 2 16, 2,4-D 1000
  HORVW Obs: 10

## CCNc1nc(Cl)nc(NC(C)C)n1 [Atrazine, atrazine, reference compound]
Velvetleaf (ABUTH); [5]
  ABUTH Obs: 15
Velvetleaf (ABUTH); [6]
  ABUTH Obs: 45
Velvetleaf (ABUTH); [7]
  ABUTH Obs: 55
Velvetleaf (ABUTH); [8]
  ABUTH Obs: 62
Velvetleaf (ABUTH); [9]
  ABUTH Obs: 64
Velvetleaf (ABUTH); [10]
  ABUTH Obs: 37
Velvetleaf (ABUTH); [11]
  ABUTH Obs: 78
Velvetleaf (ABUTH); [12]
  ABUTH Obs: 85
Velvetleaf (ABUTH); [13]
  ABUTH Obs: 98
Velvetleaf (ABUTH); [14]
  ABUTH Obs: 99
Velvetleaf (ABUTH); [15]
  ABUTH Obs: 68
Velvetleaf (ABUTH); [16]
  ABUTH Obs: 63
Velvetleaf (ABUTH); [17]
  ABUTH Obs: 87
Velvetleaf (ABUTH); [18]
  ABUTH Obs: 100
Velvetleaf (ABUTH); [19]
  ABUTH Obs: 99
Common ragweed (AMBEL); [5]
  AMBEL Obs: 20
Common ragweed (AMBEL); [6]
  AMBEL Obs: 43
Common ragweed (AMBEL); [7]
  AMBEL Obs: 57
Common ragweed (AMBEL); [8]
  AMBEL Obs: 40
Common ragweed (AMBEL); [9]
  AMBEL Obs: 48
Common ragweed (AMBEL); [10]
  AMBEL Obs: 18
Common ragweed (AMBEL); [11]
  AMBEL Obs: 69
Common ragweed (AMBEL); [12]
  AMBEL Obs: 83
Common ragweed (AMBEL); [13]
  AMBEL Obs: 86
Common ragweed (AMBEL); [14]
  AMBEL Obs: 98
Common ragweed (AMBEL); [15]
  AMBEL Obs: 12
Common ragweed (AMBEL); [16]
  AMBEL Obs: 22
Common ragweed (AMBEL); [17]
  AMBEL Obs: 63
Common ragweed (AMBEL); [18]
  AMBEL Obs: 72
Common ragweed (AMBEL); [19]
  AMBEL Obs: 90

## COC(=O)c1nc(C2CC2)nc(N)c1Cl [Compound 2, methyl 6-amino-5-chloro-2-cyclopropyl-4-pyrimidinecarboxylate]
Velvetleaf (ABUTH); [5]
  ABUTH Obs: 13
Velvetleaf (ABUTH); [6]
  ABUTH Obs: 28
Velvetleaf (ABUTH); [7]
  ABUTH Obs: 45
Velvetleaf (ABUTH); [8]
  ABUTH Obs: 45
Velvetleaf (ABUTH); [9]
  ABUTH Obs: 52
Velvetleaf (ABUTH); [10]
  ABUTH Obs: 13
Velvetleaf (ABUTH); [11]
  ABUTH Obs: 18
Velvetleaf (ABUTH); [12]
  ABUTH Obs: 65
Velvetleaf (ABUTH); [13]
  ABUTH Obs: 63
Velvetleaf (ABUTH); [14]
  ABUTH Obs: 73
Velvetleaf (ABUTH); [15]
  ABUTH Obs: 38
Velvetleaf (ABUTH); [16]
  ABUTH Obs: 55
Velvetleaf (ABUTH); [17]
  ABUTH Obs: 63
Velvetleaf (ABUTH); [18]
  ABUTH Obs: 68
Velvetleaf (ABUTH); [19]
  ABUTH Obs: 78
[1]; Cpd 2 alone 4 g a.i./ha
  Postemergence CHEAL Obs: 50
[1]; Cpd 2 alone 8 g a.i./ha
  Postemergence CHEAL Obs: 50
[1]; Cpd 2 alone 16 g a.i./ha
  Postemergence CHEAL Obs: 65
Red deadnettle (LAMPU); 30 DAA
  LAMPU Obs: 87%
Red deadnettle (LAMPU); 42 DAA
  LAMPU Obs: 35%
Red deadnettle (LAMPU); 46 DAA
  LAMPU Obs: 100%
Common chickweed (STEME); 7 DAA
  STEME Obs: 22%
Common chickweed (STEME); 14 DAA
  STEME Obs: 13%
Common chickweed (STEME); 23 DAA
  STEME Obs: 3%
Common chickweed (STEME); 30 DAA
  STEME Obs: 0%
Common chickweed (STEME); 57 DAA
  STEME Obs: 0%
[2]; Cpd 2 alone 4 g a.i./ha
  Postemergence CHEAL Obs: 53
[2]; Cpd 2 alone 8 g a.i./ha
  Postemergence CHEAL Obs: 55
[2]; Cpd 2 alone 16 g a.i./ha
  Postemergence CHEAL Obs: 55
Winter barley (HORVW); in vivo
  HORVW Obs: 45
[3]; 7 DAA
  LAMAM Obs: 22%
[3]; 14 DAA
  LAMAM Obs: 27%
[3]; 23 DAA
  LAMAM Obs: 50%
[3]; 30 DAA
  LAMAM Obs: 65%
[3]; 57 DAA
  LAMAM Obs: 89%
Wild radish (RAPRA); 14 DAA, 125 g a.i./ha
  RAPRA Obs: 35%
Wild radish (RAPRA); 14 DAA, 250 g a.i./ha
  RAPRA Obs: 53%
Wild radish (RAPRA); 14 DAA, 500 g a.i./ha
  RAPRA Obs: 73%
Wild radish (RAPRA); 28 DAA, 250 g a.i./ha
  RAPRA Obs: 38%
Wild radish (RAPRA); 28 DAA, 500 g a.i./ha
  RAPRA Obs: 58%
Common ragweed (AMBEL); [5]
  AMBEL Obs: 18
Common ragweed (AMBEL); [6]
  AMBEL Obs: 27
Common ragweed (AMBEL); [7]
  AMBEL Obs: 53
Common ragweed (AMBEL); [8]
  AMBEL Obs: 70
Common ragweed (AMBEL); [9]
  AMBEL Obs: 70
Common ragweed (AMBEL); [10]
  AMBEL Obs: 10
Common ragweed (AMBEL); [11]
  AMBEL Obs: 48
Common ragweed (AMBEL); [12]
  AMBEL Obs: 70
Common ragweed (AMBEL); [13]
  AMBEL Obs: 88
Common ragweed (AMBEL); [14]
  AMBEL Obs: 97
Common ragweed (AMBEL); [15]
  AMBEL Obs: 10
Common ragweed (AMBEL); [16]
  AMBEL Obs: 33
Common ragweed (AMBEL); [17]
  AMBEL Obs: 42
Common ragweed (AMBEL); [18]
  AMBEL Obs: 77
Common ragweed (AMBEL); [19]
  AMBEL Obs: 93

## O=C(O)CNCP(=O)(O)O [Glyphosate]
Red deadnettle (LAMPU); 30 DAA
  LAMPU Obs: 70%
Red deadnettle (LAMPU); 42 DAA
  LAMPU Obs: 52%
Red deadnettle (LAMPU); 46 DAA
  LAMPU Obs: 97%
Common chickweed (STEME); 7 DAA
  STEME Obs: 42%
Common chickweed (STEME); 14 DAA
  STEME Obs: 84%
Common chickweed (STEME); 23 DAA
  STEME Obs: 93%
Common chickweed (STEME); 30 DAA
  STEME Obs: 100%
Common chickweed (STEME); 57 DAA
  STEME Obs: 99%
[3]; 7 DAA
  LAMAM Obs: 25%
[3]; 14 DAA
  LAMAM Obs: 37%
[3]; 23 DAA
  LAMAM Obs: 79%
[3]; 30 DAA
  LAMAM Obs: 95%
[3]; 57 DAA
  LAMAM Obs: 66%

## CCc1cccc(C)c1N(C(=O)CCl)[C@@H](C)COC [S-Metolachlor, S-metolachlor, reference compound]
Wild radish (RAPRA); 14 DAA, 1000 g a.i./ha
  RAPRA Obs: 40%
Wild radish (RAPRA); 28 DAA, 1000 g a.i./ha
  RAPRA Obs: 15%
